According to patent US6355799B1, “Substituted benzene compounds, process for their preparation, and herbicidal and defoliant compositions containing them” (ISK Americas Incorporated, priority 1997, dated 2002):

Columns and labels:
Type in all cases: in vivo
[1] = system: barnyardgrass (Echinochloa crus-galli, ECHCG); test: Pre-emerge test, greenhouse herbicide activity screening; details: rated 14 days after application, 0 = no damage, 100 = complete death
How it was run: (§1)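 Herbicidal damage is scored 0 (none) to 100 (complete plant death) two weeks after a simulated field spray. Rates span 15–1000 g ai/ha, delivered in acetone at 187 l/ha. For post-emergence treatments, plants have 2–3 leaves and the spray carries 0.25% v/v non-ionic surfactant.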

[2] = system: ivyleaf morningglory (Ipomoea hederacea, IPOHE); test: as above; details: rated 14 days after application, 0 = no damage, 100 = complete death
How it was run: as §1

[3] = system: sicklepod (Cassia obtusifolia, CASOB); test: as above; details: rated 14 days after application, 0 = no damage, 100 = complete death
How it was run: as §1

[4] = system: lambsquarters (Chenopodium album, CHEAL); test: as above; details: rated 14 days after application, 0 = no damage, 100 = complete death
How it was run: as §1

[5] = system: johnsongrass (Sorghum halepense, SORHA); test: as above; details: rated 14 days after application, 0 = no damage, 100 = complete death
How it was run: as §1

[6] = system: large crabgrass (Digitaria sanguinalis, DIGSA); test: as above; details: rated 14 days after application, 0 = no damage, 100 = complete death
How it was run: as §1

[7] = system: velvetleaf (Abutilon theophrasti, ABUTH); test: as above; details: rated 14 days after application, 0 = no damage, 100 = complete death
How it was run: as §1

[8] = system: green foxtail (Setaria viridis, SETVI); test: as above; details: rated 14 days after application, 0 = no damage, 100 = complete death
How it was run: as §1

[9] = system: redroot pigweed (Amaranthus retroflexus, AMARE); test: as above; details: rated 14 days after application, 0 = no damage, 100 = complete death
How it was run: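 Visual ratings on a 0-100 scale (0 no damage, 100 all plants dead) were taken at 14 days after treatment. Rates of 15-1000 g ai/ha in acetone, 187 l/ha, were sprayed onto soil one day after planting (pre-emerge) or onto 2-3 leaf plants with 0.25% v/v surfactant (post-emerge).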

[10] = system: upland rice (Oryza sp., var. Tebonnet, RICE); test: Pre-emerge test, crop safety; details: rated 14 days after application, 0 = no damage, 100 = complete death
How it was run: (§2)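 Compounds in acetone were track-sprayed at 15-1000 g ai/ha (187 l/ha) on sandy loam pots: pre-emerge one day after seeding, post-emerge at 2-3 leaf stage with 0.25% v/v non-ionic surfactant. Phytotoxicity was rated 14 days later on a 0 (no damage) to 100 (complete death) scale.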

[11] = system: field corn (Zea mays L., var. Dekalb 535, CORN); test: Pre-emerge test, crop safety; details: rated 14 days after application, 0 = no damage, 100 = complete death
How it was run: as §2

[12] = system: redroot pigweed (Amaranthus retroflexus, AMARE); test: Post-emerge test, greenhouse herbicide activity screening; details: post-emerge, 14 days after application, rating scale 0-100
How it was run: (§3)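 Compounds in acetone were track-sprayed at 187 l/ha, 15–1000 g ai/ha, onto sandy loam pots. Pre-emerge seeds were sown one day before spraying, with surface watering afterwards. Post-emerge plants were at the 2–3 leaf stage and sprayed with 0.25% v/v non-ionic surfactant. Injury was rated 0–100 at 14 days.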

[13] = system: barnyardgrass (Echinochloa crus-galli, ECHCG); test: as above; details: post-emerge, 14 days after application, rating scale 0-100
How it was run: as §3

[14] = system: ivyleaf morningglory (Ipomoea hederacea, IPOHE); test: as above; details: post-emerge, 14 days after application, rating scale 0-100
How it was run: as §3

[15] = system: sicklepod (Cassia obtusifolia, CASOB); test: as above; details: post-emerge, 14 days after application, rating scale 0-100
How it was run: as §3

[16] = system: johnsongrass (Sorghum halepense, SORHA); test: as above; details: post-emerge, 14 days after application, rating scale 0-100
How it was run: as §3

[17] = system: large crabgrass (Digitaria sanguinalis, DIGSA); test: as above; details: post-emerge, 14 days after application, rating scale 0-100
How it was run: as §3

[18] = system: velvetleaf (Abutilon theophrasti, ABUTH); test: as above; details: post-emerge, 14 days after application, rating scale 0-100
How it was run: as §3

[19] = system: green foxtail (Setaria viridis, SETVI); test: as above; details: post-emerge, 14 days after application, rating scale 0-100
How it was run: as §3

[20] = system: upland rice (Oryza sp., var. Tebonnet, RICE); test: Post-emerge test, crop safety; details: post-emerge, 14 days after application, rating scale 0-100
How it was run: as §1

[21] = system: field corn (Zea mays L., var. Dekalb 535, CORN); test: Post-emerge test, crop safety; details: post-emerge, 14 days after application, rating scale 0-100
How it was run: as §1

CCOC(=O)C(=O)Nc1c(OC)c(Cl)cc(F)c1-n1c(=O)cc(C(F)(F)F)n(C)c1=O [2-118]
60: phytotoxicity rating ABUTH ([18]; 63 g ai/ha)
30: Pre-emerge phytotoxicity rating (0-100), crop damage, RICE ([10]; 250 g ai/ha) | phytotoxicity rating AMARE ([12]; 63 g ai/ha) | phytotoxicity rating AMARE ([12]; 250 g ai/ha) | phytotoxicity rating CASOB ([15]; 250 g ai/ha)
50: Pre-emerge Herbicidal Activity, phytotoxicity rating (0-100), SETVI ([8]; 250 g ai/ha) | phytotoxicity rating IPOHE ([14]; 63 g ai/ha)
10: Pre-emerge Herbicidal Activity, phytotoxicity rating (0-100), IPOHE ([2]; 63 g ai/ha) | Pre-emerge phytotoxicity rating (0-100), crop damage, CORN ([11]; 250 g ai/ha) | phytotoxicity rating RICE ([20]; 63 g ai/ha) | phytotoxicity rating RICE ([20]; 250 g ai/ha) | phytotoxicity rating CORN ([21]; 63 g ai/ha)
100: Pre-emerge Herbicidal Activity, phytotoxicity rating (0-100), CHEAL ([4]; 250 g ai/ha) | Pre-emerge Herbicidal Activity, phytotoxicity rating (0-100), ABUTH ([7]; 250 g ai/ha) | Pre-emerge Herbicidal Activity, phytotoxicity rating (0-100), AMARE ([9]; 250 g ai/ha)
40: Pre-emerge Herbicidal Activity, phytotoxicity rating (0-100), CASOB ([3]; 250 g ai/ha) | Pre-emerge Herbicidal Activity, phytotoxicity rating (0-100), AMARE ([9]; 63 g ai/ha)
90: Pre-emerge Herbicidal Activity, phytotoxicity rating (0-100), CASOB ([3]; 63 g ai/ha) | Pre-emerge Herbicidal Activity, phytotoxicity rating (0-100), CHEAL ([4]; 63 g ai/ha) | Pre-emerge Herbicidal Activity, phytotoxicity rating (0-100), ABUTH ([7]; 63 g ai/ha) | phytotoxicity rating IPOHE ([14]; 250 g ai/ha)
80: Pre-emerge Herbicidal Activity, phytotoxicity rating (0-100), IPOHE ([2]; 250 g ai/ha) | phytotoxicity rating ABUTH ([18]; 250 g ai/ha)
0: Pre-emerge Herbicidal Activity, phytotoxicity rating (0-100), ECHCG ([1]; 63 g ai/ha) | Pre-emerge Herbicidal Activity, phytotoxicity rating (0-100), ECHCG ([1]; 250 g ai/ha) | Pre-emerge Herbicidal Activity, phytotoxicity rating (0-100), SORHA ([5]; 63 g ai/ha) | Pre-emerge Herbicidal Activity, phytotoxicity rating (0-100), SORHA ([5]; 250 g ai/ha) | Pre-emerge Herbicidal Activity, phytotoxicity rating (0-100), DIGSA ([6]; 63 g ai/ha) | Pre-emerge Herbicidal Activity, phytotoxicity rating (0-100), SETVI ([8]; 63 g ai/ha) | Pre-emerge phytotoxicity rating (0-100), crop damage, RICE ([10]; 63 g ai/ha) | Pre-emerge phytotoxicity rating (0-100), crop damage, CORN ([11]; 63 g ai/ha) | phytotoxicity rating ECHCG ([13]; 63 g ai/ha) | phytotoxicity rating ECHCG ([13]; 250 g ai/ha) | phytotoxicity rating CASOB ([15]; 63 g ai/ha) | phytotoxicity rating SORHA ([16]; 63 g ai/ha) | phytotoxicity rating SORHA ([16]; 250 g ai/ha) | phytotoxicity rating DIGSA ([17]; 63 g ai/ha) | phytotoxicity rating DIGSA ([17]; 250 g ai/ha) | phytotoxicity rating SETVI ([19]; 63 g ai/ha) | phytotoxicity rating SETVI ([19]; 250 g ai/ha)
20: Pre-emerge Herbicidal Activity, phytotoxicity rating (0-100), DIGSA ([6]; 250 g ai/ha) | phytotoxicity rating CORN ([21]; 250 g ai/ha)

COc1c(Cl)cc(F)c(-n2c(=O)cc(C(F)(F)F)n(C)c2=O)c1NC(=O)COC(C)=O [2-117]
95: phytotoxicity rating CASOB ([15]; 250 g ai/ha)
70: Pre-emerge Herbicidal Activity, phytotoxicity rating (0-100), ECHCG ([1]; 250 g ai/ha) | phytotoxicity rating AMARE ([12]; 250 g ai/ha)
5: phytotoxicity rating CORN ([21]; 63 g ai/ha)
40: phytotoxicity rating CASOB ([15]; 63 g ai/ha) | phytotoxicity rating RICE ([20]; 250 g ai/ha)
10: Pre-emerge Herbicidal Activity, phytotoxicity rating (0-100), ECHCG ([1]; 63 g ai/ha) | Pre-emerge Herbicidal Activity, phytotoxicity rating (0-100), SORHA ([5]; 63 g ai/ha) | Pre-emerge phytotoxicity rating (0-100), crop damage, CORN ([11]; 63 g ai/ha) | phytotoxicity rating AMARE ([12]; 63 g ai/ha) | phytotoxicity rating RICE ([20]; 63 g ai/ha)
30: Pre-emerge Herbicidal Activity, phytotoxicity rating (0-100), DIGSA ([6]; 63 g ai/ha) | Pre-emerge Herbicidal Activity, phytotoxicity rating (0-100), SETVI ([8]; 63 g ai/ha) | Pre-emerge phytotoxicity rating (0-100), crop damage, RICE ([10]; 63 g ai/ha)
80: Pre-emerge Herbicidal Activity, phytotoxicity rating (0-100), CASOB ([3]; 63 g ai/ha) | phytotoxicity rating ABUTH ([18]; 63 g ai/ha)
100: Pre-emerge Herbicidal Activity, phytotoxicity rating (0-100), IPOHE ([2]; 63 g ai/ha) | Pre-emerge Herbicidal Activity, phytotoxicity rating (0-100), IPOHE ([2]; 250 g ai/ha) | Pre-emerge Herbicidal Activity, phytotoxicity rating (0-100), CASOB ([3]; 250 g ai/ha) | Pre-emerge Herbicidal Activity, phytotoxicity rating (0-100), CHEAL ([4]; 63 g ai/ha) | Pre-emerge Herbicidal Activity, phytotoxicity rating (0-100), CHEAL ([4]; 250 g ai/ha) | Pre-emerge Herbicidal Activity, phytotoxicity rating (0-100), ABUTH ([7]; 63 g ai/ha) | Pre-emerge Herbicidal Activity, phytotoxicity rating (0-100), ABUTH ([7]; 250 g ai/ha) | Pre-emerge Herbicidal Activity, phytotoxicity rating (0-100), SETVI ([8]; 250 g ai/ha) | Pre-emerge Herbicidal Activity, phytotoxicity rating (0-100), AMARE ([9]; 250 g ai/ha) | phytotoxicity rating IPOHE ([14]; 250 g ai/ha) | phytotoxicity rating ABUTH ([18]; 250 g ai/ha)
0: phytotoxicity rating ECHCG ([13]; 63 g ai/ha) | phytotoxicity rating ECHCG ([13]; 250 g ai/ha) | phytotoxicity rating SORHA ([16]; 63 g ai/ha) | phytotoxicity rating SORHA ([16]; 250 g ai/ha) | phytotoxicity rating DIGSA ([17]; 63 g ai/ha) | phytotoxicity rating DIGSA ([17]; 250 g ai/ha) | phytotoxicity rating SETVI ([19]; 63 g ai/ha) | phytotoxicity rating SETVI ([19]; 250 g ai/ha)
90: Pre-emerge Herbicidal Activity, phytotoxicity rating (0-100), DIGSA ([6]; 250 g ai/ha) | Pre-emerge Herbicidal Activity, phytotoxicity rating (0-100), AMARE ([9]; 63 g ai/ha) | Pre-emerge phytotoxicity rating (0-100), crop damage, RICE ([10]; 250 g ai/ha) | phytotoxicity rating IPOHE ([14]; 63 g ai/ha)
60: Pre-emerge Herbicidal Activity, phytotoxicity rating (0-100), SORHA ([5]; 250 g ai/ha)
20: phytotoxicity rating CORN ([21]; 250 g ai/ha)
35: Pre-emerge phytotoxicity rating (0-100), crop damage, CORN ([11]; 250 g ai/ha)
